Columns and labels:
albino rabbits = test: Corneal anesthesia measurements (Cochet's esthesiometer); type: in vivo, rabbit
Description: The effect of a 50 μl single instillation of 0.3%, 0.5%, 1.0% and 2.0% solution of compound 7 on corneal anesthesia, after a single instillation in the conjunctival sac of the right eyes of albino rabbits (N=5) was measured using a Cochet's esthesiometer (nylon thread: 0.12 mm diameter, 10 mm long). Corneal anesthesia was evaluated by the number of comeal mechanical stimuli necessary to induce a blinking reflex. The effect of drug solutions was compared with sterile 0.9% NaCl treated animals (control group) and 0.4% oxybuprocaine (Novesine®).

[1] = Accelerated stability test of 0.25% solutions in acetate buffer, HPLC; type: physicochemical; conditions: for projected shelf-life: conventional eye drop formulation, at room temperature
Description: An accelerated stability test was conducted on 0.25% solutions of compounds 6, 7, and 8 (Example 2) at 40° C. for 1, 2, 3, 4, 8 and 12 weeks and monitored for the disappearance of the prodrugs and appearance of the parent compound by HPLC analysis. The parent compound (referred to hereinafter as compound 4) has the formula: […]
The respective compounds were dissolved in an acetate buffer, pH 3.5 (0.018% sodium acetate, 0.135% acetic acid, 0.9% sodium chloride in water for injection) to obtain 0.25% solution. The stability of the compounds was determined at 40° C. for 1, 2, 3, 4, 8, and 12 weeks. The concentration of the parent compound as well as the concentrations of the prodrug compounds 6, 7, and 8 at each time point by HPLC method.

[2] = Ocular bioavailability, aqueous humor analyzed by HPLC; type: in vivo; conditions: rabbit aqueous humor
Description: Three rabbits were used per time point. The 50 μl test substance was administered in a single instillation using a micropipette into the conjunctival sac of the right and the left eyes. The rabbits were anesthetized with an intramuscular injection of Imalgéne® 1000 (ketamine 32 mg/kg), and Rompun® (xylasine 7.5 mg/kg). They were then desanguinated by cardiac puncture and thereafter euthanized by an overdose of pentobarbital. Immediately after death, the eyes were micro-dissected to obtain: cornea (C), aqueous humor (AH), and iris-ciliary body (ICB). All samples were stored at −80° C. Only aqueous humor (AH) samples were analyzed by HPLC.

Row | Structure (SMILES) | corneal sensitivity (local anesthetic activity) (albino rabbits; at 1%) | projected shelf-life [1] | level of the prodrug itself in aqueous humor [2] | corneal sensitivity (local anesthetic activity) (albino rabbits; 50 μl single instillation of 0.3%, 0.5%, 1.0% and 2.0% solution, compared to 0.4% oxybuprocaine) | relative stability (FIG. 1, percent degradation) ([1]; 0.25% solution, 40° C., pH 3.5, compared among compounds 6, 7 and 8)
1 | Cc1cc(O)c(O)cc1C(=O)OCC(CNC(C)(C)CNC(=O)C1CCOC1)OC(=O)C(C)(C)C (centres unmarked) [Compound 6, reference compound] | complete comeal sensitivity loss | 2.6 months | below the detection limit | – | –
2 | Cc1cc(O)c(O)cc1C(=O)OCC(CNC(C)(C)CNC(=O)C1CCOC1)OC(=O)C1(C)CC1 (centres unmarked) [Compound 7, 4,5-Dihydroxy-2-methyl-benzoic acid 3-{1,1-dimethyl-2-[(tetrahydro-furan-3-carbonyl)-amino]-ethylamino}-2-(1-methyl-cyclopropanecarbonyloxy)-propyl ester] | – | at least 18 months | also present in aqueous humor | no comeal sensitivity | most stable
3 | Cc1cc(O)c(O)cc1C(=O)OCC(CNC(C)(C)CNC(=O)C1CCOC1)OC(=O)C1CC1(C)C (centres unmarked) [Compound 8, 4,5-dihydroxy-2-methyl-benzoic acid 2-(2,2-dimethyl-cyclopropanecarbonyloxy)-3-{1,1-dimethyl-2-[(tetrahydro-furan-3-carbonyl)-amino]-ethylamino}-propyl ester] | – | 7.9 months | – | – | –

— patent US7678829B2, “Oculoselective drugs and prodrugs” (QLT Inc., priority 2004, dated 2010)
